The results in this text go back to patent US7595300B2, “7-quinolyl ketolide antibacterial agents” (priority 2005, dated 2009).

In brackets after ≈: the same amount, converted by molar mass. Like-named read-outs stand apart in the source and are kept apart here.

One data set deals with anesthetized guinea pigs. Nature of the data set: Cardiovascular safety, QTc interval in anesthetized guinea pigs, i.v. bolus. The class given is in vivo, guinea pig. The note with it: for QTc prolongation (% above vehicle): anesthetized guinea pig, incremental i.v. bolus doses 0.47 to 15 mg/kg; for effect on the QTc interval in the anesthetized guinea pig: cumulative doses up to 30 mg/kg, relative to vehicle controls. The method, then:
(§1) Total doses of drug (0.47, 0.94, 1.88, 3.75, 7.5, and 15 mg/kg) or equivalent volumes of vehicle were administered incrementally as an i.v. bolus to groups of 6 anesthetized rats or guinea pigs at 0, 15, 30, 45, 60, and 75 minutes. Hemodynamic parameters including mean arterial pressure (MAP) and heart rate (HR), and ECG parameters (QT and PR intervals and QRS duration) were recorded. For the rat, injection of vehicle gave a 16% increase in QT interval over baseline. For the guinea pig, injection of vehicle gave a 3% increase in QT interval over baseline.

The subject of a further data set is anesthetized rats. Nature of the data set: Cardiovascular safety, QT interval in anesthetized rats, i.v. bolus. The class given is in vivo, rat. The note with it: anesthetized rat, incremental i.v. bolus doses 0.47 to 15 mg/kg. The method, then: as §1
The nature of data set [1]: Pharmacokinetics in the mouse, plasma and lung tissue. The class given is in vivo. The conditions noted are these: oral gavage 10 mg/kg; for Lung AUC / Lung Cmax: mouse lung tissue; for Plasma AUC / Plasma Cmax: mouse plasma. The method, then:
The pharmacokinetics of compounds of formula (VIII) and compounds of formula (II) and (III) were measured in the mouse. Compounds were administered either intravenously (i.v.) at 1 mg/kg, or per oral gavage (p.o.) at 10 mg/kg. Plasma samples were taken and analyzed by LC/MS-MS. For lung tissue pharmacokinetics, lungs were removed and homogenized, followed by analyzis by LC/MS-MS.

The next data set relates to P. granulosum. Nature of the data set: MIC, NCCLS Reference Agar Dilution Method for anaerobic bacteria. It counts as cell-based, Propionibacterium granulosum. How it is done:
(§2) Minimum inhibitory concentrations (“MICs”) were determined by the NCCLS Reference Agar Dilution Method (M11-A5, Vol. 21, No. 2) for anaerobic bacteria. A panel of 84 antibiotic-susceptible and resistant strains of Propionibacteria from distinct geographic locations were selected. Following revival from frozen stocks, each strain was purity plated onto Wilkins Chalgren Agar, pH 7.2 (Oxoid, UK), and the appropriate antibiotic resistance/susceptibility phenotype was confirmed by antibiotic disc testing. Each strain was subjected to an agar dilution MIC assay. […] The inocula for each batch of strains were prepared from 7-day old Wilkins Chalgren Agar plate cultures by resuspension of colonies in Wilkins Chalgren Anaerobe broth, pH 7.2 (Oxoid, UK) to an optical density (OD600) of 0.2±0.02. The inoculum (1.0-2.0 μL) for each strain was applied to a Wilkins Chalgren Agar MIC plate in a grid pattern using a Multipoint Inoculator (Denley, UK). All agar plates were incubated at 37° C. for 3 days under anaerobic conditions in AnaeroPack 7 liter rectangular jars (Mitsubishi Gas Chemical Company, Inc., Japan).
(Agar dilution tests growth on a series of plates holding different concentrations.)

Another data set deals with P. acnes. Described as above. The class given is cell-based, Propionibacterium acnes. How it is done: as §2
A further data set relates to Streptococcus pneumoniae. Nature of the data set: MIC, NCCLS broth microdilution, respiratory pathogens. It counts as cell-based. The conditions noted are these: S. pneumoniae; for MIC50: read-out: MIC50; for MIC90: read-out: MIC90. The method, then:
(§3) Minimum inhibitory concentrations (“MICs”) were determined by the NCCLS broth microdilution procedure for susceptibility testing for bacteria that grow aerobically (National Committee for Clinical Laboratory Standards, 1997. Methods for dilution antimicrobial susceptibility tests for bacteria that grow aerobically, 4th ed. Approved standard. NCCLS Document M7-A4. National Committee for Clinical Laboratory Standards, Villanova, Pa.). Stock solutions were prepared on the day of the test and appropriate aliquots were added to cation adjusted Mueller-Hinton broth (CAMHB, DIFCO) or Haemophilus test media. Two-fold serial dilutions were prepared and added to wells in microtiter plates. Final test concentrations ranged from 8 to 0.004 ug/ml. Broth cultures of bacteria inoculated from growth on overnight plates for all test bacteria except Streptococcus pneumoniae and Haemophilus influenzae were incubated at 35° C. and then adjusted to the Kirby Bauer standard and diluted in CAMHB to achieve a final inoculum concentration of approximately 5×10^5 CFU/ml. Inocula for S. pneumoniae and H. influenzae were prepared by directly suspending colonies from an overnight plate, adjusting the turbidity and diluting as above. S. pneumoniae media was supplemented with 3% lysed horse blood. All plates were incubated in ambient air at 35° C. for 20-24 h for S. pneumoniae and Haemophilus influenzae and 16-20 h for all other bacteria.
A general note: In broth dilution the organism is exposed to a series of concentrations in liquid medium.

In another data set the test system is Haemophilus influenzae. The data set is described as above. The note with it: H. influenzae. The class given is cell-based. The method, then:
as §3

The next data set concerns S. pyogenes. The data set is described as above. It counts as cell-based. The note with it: Streptococcus pyogenes; for MIC50: read-out: MIC50; for MIC90: read-out: MIC90. How it is done: as §3
In the next data set the test system is M. catarrhalis. Described as above. It counts as cell-based. The conditions noted are these: Moraxella catarrhalis, M. catarrhalis. How it is done: as §3
The mark [2] stands for this setting: marker RNA 2058, phenotype EryR.
[3] abbreviates: marker RNA 2059, phenotype EryR.
The mark [4] stands for this setting: marker RNA 2057, phenotype EryR.

For `CC1CC(N(C)C)C(O)C(O[C@@H]2[C@@H](C)C(=O)[C@](C)(F)C(=O)O[C@H](CCF)[C@@]3(C)OC(=O)N[C@@H]3[C@@H](C)C(=O)[C@H](C)C[C@@]2(C)OC/C=C/c2cnc3ccccc3c2)O1` (stereo partly shown) [B], in the data set with anesthetized guinea pigs, the “QTc prolongation (% above vehicle)” value turned out to be 3 % above vehicle and the “effect on the QTc interval in the anesthetized guinea pig” value (from here on “effect on the QTc interval”) is listed as “smaller yet persistent increase in QTc at the highest dose”. Besides, in the data set on anesthetized rats, the “QT prolongation (% above vehicle)” value stood at 10 % above vehicle. In [1], the “Lung AUC” value was 19.0 ug/mL-h, the “Lung Cmax” value worked out at 3300 ng/mL, the “Plasma AUC” value is 3.9 ug/mL-h and the “Plasma Cmax” value stood at 1000 ng/mL.
Regarding `CCC[C@@H]1C[C@@H](C(=O)N[C@@H]([C@H]2O[C@H](SC)[C@H](O)[C@@H](O)[C@H]2O)[C@H](C)Cl)N(C)C1` [clindamycin], the MIC range in the data set on P. granulosum (setting [2]) is 512 µg/mL (≈ 1200 µM); with P. granulosum (setting [3]) it was 2 to 512 µg/mL; with P. granulosum (marker ermX, phenotype EryR) it was 512 µg/mL (≈ 1200 µM); with P. granulosum (marker none, phenotype none), 0.06 to 0.25 µg/mL; with P. acnes (marker RNA 1058, phenotype TetR) it was 0.25 to 256 µg/mL; against P. acnes (marker RNA 1058/2058, phenotype TetR, EryR) it was 256 µg/mL (≈ 602 µM). Moreover, the MIC range with P. acnes (marker RNA 1058/2059, phenotype TetR, EryR) is 8 to 16 µg/mL; in the data set with P. acnes (setting [4]), 1 µg/mL (≈ 2.35 µM); in the data set with P. acnes (setting [2]) it was 8 to 256 µg/mL; against P. acnes (marker RNA 2058, phenotype EryR, TetR), 2 to 256 µg/mL; in the data set on P. acnes (setting [3]) it was 8 to 256 µg/mL; against P. acnes (marker RNA 2059, phenotype EryR, TetR), 8 to 32 µg/mL. In addition, the MIC range with P. acnes (marker ermX, phenotype EryR) is above 512 µg/mL; against P. acnes (marker none, phenotype none), 0.125 to 1 µg/mL; against P. acnes (marker unknown, phenotype ClindR), 4 µg/mL (≈ 9.41 µM).
For `CC1CC(N(C)C)C(O)C(O[C@@H]2[C@@H](C)C(=O)[C@@H](C)C(=O)O[C@H](CCF)[C@@]3(C)OC(=O)N[C@@H]3[C@@H](C)C(=O)[C@H](C)C[C@@]2(C)OC/C=C/c2cnc3ccccc3c2)O1` (stereo partly shown) [A], in the data set with anesthetized guinea pigs, the “QTc prolongation (% above vehicle)” value stood at 10 % above vehicle and the “effect on the QTc interval” value is reported as “pronounced, dose-dependent prolongation of the QT interval”. The “QT prolongation (% above vehicle)” value in the data set on anesthetized rats came out at 8 % above vehicle. Also, in data set [1], the “Lung AUC” value is 2.3 ug/mL-h, the “Lung Cmax” value was found to be 800 ng/mL, the “Plasma AUC” value is on record as 0.7 ug/mL-h and the “Plasma Cmax” value came to 400 ng/mL.
In the case of `CC1CC(N(C)C)C(O)C(O[C@@H]2[C@@H](C)C(=O)[C@@H](C)C(=O)O[C@H](CCF)[C@@]3(C)OC(=O)N[C@@H]3[C@@H](C)C(=O)[C@H](C)C[C@@]2(C)OC/C=C/c2ccc3ncccc3c2)O1` (stereo partly shown) [C], in the data set with anesthetized guinea pigs, the “QTc prolongation (% above vehicle)” value stood at 12 % above vehicle and the “effect on the QTc interval” value is listed as “pronounced, dose-dependent prolongation of the QT interval”. The “QT prolongation (% above vehicle)” value in the data set on anesthetized rats is reported as 20 % above vehicle.
For the compound `CC1CC(N(C)C)C(O)C(O[C@@H]2[C@@H](C)C(=O)[C@@H](C)C(=O)O[C@H](CCF)[C@@]3(C)OC(=O)N[C@@H]3[C@@H](C)C(=O)[C@H](C)C[C@@]2(C)OC/C=C/c2cnc3cccnc3c2)O1` (stereo partly shown) [D], in the data set with anesthetized guinea pigs, the “QTc prolongation (% above vehicle)” value was found to be 14 % above vehicle and the “effect on the QTc interval” value is listed as “pronounced, dose-dependent prolongation of the QT interval”. The “QT prolongation (% above vehicle)” value in the data set with anesthetized rats was 28 % above vehicle.
Take `CC[C@H]1OC(=O)[C@H](C)[C@@H](O[C@H]2C[C@@](C)(OC)[C@@H](O)[C@H](C)O2)[C@H](C)[C@@H](O[C@@H]2O[C@H](C)C[C@H](N(C)C)[C@H]2O)[C@](C)(OC)C[C@@H](C)C(=O)[C@H](C)[C@@H](O)[C@]1(C)O` [clarithromycin, reference compound]: the MIC50 in the data set with Streptococcus pneumoniae (20 h, genotype ermB + mef) is above 8 µg/mL; with Streptococcus pneumoniae (genotype ermB), above 8 µg/mL; in the data set on Streptococcus pneumoniae (genotype mef), 4 µg/mL (≈ 5.35 µM); in the data set on Streptococcus pneumoniae (genotype sensitive), 0.06 µg/mL (≈ 0.0802 µM); with Haemophilus influenzae (resistant) it was above 8 µg/mL; in the data set with Haemophilus influenzae (sensitive), 8 µg/mL (≈ 10.7 µM). Besides, the MIC50 with S. pyogenes (genotype ermB) was above 8 µg/mL; in the data set on S. pyogenes (genotype mef), 8 µg/mL (≈ 10.7 µM); in the data set with S. pyogenes (genotype sensitive), 0.06 µg/mL (≈ 0.0802 µM); in the data set with M. catarrhalis (read-out: MIC50) it was 0.12 µg/mL (≈ 0.16 µM). In addition, the MIC90 in the data set on Streptococcus pneumoniae (genotype ermB + mef) was above 8 µg/mL; in the data set on Streptococcus pneumoniae (genotype ermB) it was above 8 µg/mL; with Streptococcus pneumoniae (genotype mef), 8 µg/mL (≈ 10.7 µM); in the data set on Streptococcus pneumoniae (genotype sensitive) it was 0.06 µg/mL (≈ 0.0802 µM); against Haemophilus influenzae (resistant), above 8 µg/mL; with Haemophilus influenzae (sensitive), 8 µg/mL (≈ 10.7 µM). The MIC90 in the data set on S. pyogenes (genotype ermB) is above 8 µg/mL; in the data set with S. pyogenes (genotype mef), above 8 µg/mL; in the data set on S. pyogenes (genotype sensitive) it was 0.06 µg/mL (≈ 0.0802 µM); with M. catarrhalis (read-out: MIC90), 0.12 µg/mL (≈ 0.16 µM).
Take `CC[C@H]1OC(=O)[C@H](C)[C@@H](O[C@H]2C[C@@](C)(OC)[C@@H](O)[C@H](C)O2)[C@H](C)[C@@H](O[C@@H]2O[C@H](C)C[C@H](N(C)C)[C@H]2O)[C@](C)(O)C[C@@H](C)C(=O)[C@H](C)[C@@H](O)[C@]1(C)O` [erythromycin]: the MIC range against P. granulosum (marker none, phenotype none) was 0.06 to 8 µg/mL; with P. acnes (setting [4]) it was 4 µg/mL (≈ 5.45 µM).
Turning to `CC1CC(N(C)C)C(O)C(O[C@@H]2[C@@H](C)C(=O)[C@@H](C)C(=O)O[C@H](CCF)[C@@]3(C)OC(=O)N[C@@H]3[C@@H](C)C(=O)[C@H](C)C[C@@]2(C)OC/C=C/c2ccc3nccnc3c2)O1` (stereo partly shown) [G], in the data set with anesthetized guinea pigs, the “QTc prolongation (% above vehicle)” value is 1 % above vehicle and the “effect on the QTc interval” value was “moderate, dose-dependent increase in the QTc interval that slowly returned to baseline”. Also, the “QT prolongation (% above vehicle)” value in the data set with anesthetized rats stood at 12 % above vehicle. Also, in data set [1], the “Lung AUC” value turned out to be 2.2 ug/mL-h, the “Lung Cmax” value was 450 ng/mL, the “Plasma AUC” value was found to be 0.54 ug/mL-h and the “Plasma Cmax” value was found to be 210 ng/mL.
